We go through 6 molecules from patent publication US11369588B2, “NADPH production by the 10-formyl-THF pathway, and its use in the diagnosis and treatment of disease” (The Trustees of Princeton University, priority 2014, dated 2022).

Values joined by “and” are separate entries in the source; they are usually repeats but may differ in a detail not shown here. Identical values can stand only once.

One experiment has as its system oxPPP. Nature of the experiment: oxPPP tracing: NADPH labeling from 1-2H-glucose in 3T3-L1 cells. Format: cell-based. Particulars: proliferating 3T3-L1 cells, tracer fed 2 h. The method, then: In one embodiment, PPP activity is measured by incubating cultured adipocytes (e.g., 3T3-L1 adipocytes) in the presence of 1-^14C-glucose versus 6-^14C-glucose and detecting the released ^14CO2. The oxPPP releases C1 of glucose as CO2. The 6-^14C-glucose corrects for release of C1 by other pathways, because C1 and C6 are rendered identical by the triose phosphate isomerase step in glycolysis. After determining the oxPPP flux, the cells are provided with 1-^2H-glucose, which selectively labels NADPH in the first step (G6PDH) of the PPP.
Two complimentary methods were used to measure oxPPP activity in the proliferating and differentiating 3T3-L1 cells. First, cells were cultured in the presence of 1-^14C-Glucose versus 6-^14C-Glucose and the release of ^14CO2 was detected. The oxPPP releases C1 of glucose as CO2. The 6-^14C-Glucose corrects for release of C1 by other pathways, because C1 and C6 are rendered identical by the triose phosphate isomerase step in glycolysis. […] Next, cells were fed 1-^2H-Glucose, which selectively labels NADPH in the first step (G6PDH) of the oxPPP, and can therefore be used to determine the fraction of NADPH made by the oxPPP. In the proliferating cells, M+1 NADPH exceeded M+1 NADP+ by ˜16% (FIG. 18). […] In contrast, in the differentiating adipocytes, there was much less NADPH labeling from 1-^2H-Glucose. […]

For a further experiment, the system named is malic enzyme. Briefly: Tracing hydride flux through malic enzyme with 2H tracers in 3T3-L1 cells (LC-MS labeling of malate, aspartate, NADPH, fatty acids). Particulars: for fraction of M+1 aspartate / fraction of M+1 malate / fraction of M+2 malate: differentiating 3T3-L1 adipocytes day 5; for fatty acid 2H-labeling, M+0 fraction / fatty acid 2H-labeling, M+1 fraction / fatty acid 2H-labeling, M+2 fraction: tracer 5 days. The class given is cell-based. From the text:
To more directly establish the contribution of malic enzyme to NADPH production, cells are provided with the ^2H-labeled succinate analogue, 2,2,3,3-^2H-dimethyl-succinate, and deuterium labeling is followed through the C2 hydride of malate to NADPH and finally to newly synthesized fatty acid molecules (FIGS. 15A-15F). Although any suitable labeled molecule may be used to trace hydride flux from malate to NADPH and subsequently into fat, it is preferred to use 2,2,3,3-^2H-dimethyl-succinate for the above purpose.
NADPH labeling at its redox active hydride was analyzed by comparing the M+1 fraction of NADPH to NADP+.
Converting the NADPH labeling fraction from 2,2,3,3-^2H-dimethyl-succinate into the fractional NADPH contribution of malic enzyme requires two important corrections: (i) fractional ^2H-labeling of malate's C2 hydride and (ii) the malic enzyme deuterium kinetic isotope effect (approximately 1.5).
2,2,3,3-^2H-dimethyl succinate was used to track hydride transfer mediated by malic enzyme. Tracer addition increased the cellular concentration of succinate without markedly perturbing other metabolite concentrations or fluxes. Labeling from 2,2,3,3-^2H-dimethyl succinate was followed through the C2 hydride of malate to NADPH and finally to newly synthesized fatty acids. NADPH labeling at its redox active hydride was analyzed by comparing the M+1 fraction of NADPH to NADP^+. […] Adjustment for the kinetic isotope effect in hydride transfer from NADPH to fat (˜1.1) (Yuan, Z. et al. (1984) “Elementary Steps in the Reaction Mechanism of Chicken Liver Fatty Acid Synthase,” 259:6748-6751) yields an associated cytosolic NADPH labeling fraction of 3.2%±0.5%, in excellent agreement with the directly measured whole cell NADPH labeling.
The NADPH labeling fraction from [2,2,3,3-^2H] dimethyl succinate was converted into the fractional NADPH contribution of malic enzyme is accordance with Equation 15. Forward flux from 2,2,3,3-^2H-succinate results in 2,3-^2H-malate, i.e., M+2 malate. The observed fraction of M+2 malate was, however, only 1.5%. The larger peak was M+1 malate (10.9%). Reverse flux through malate dehydrogenase can produce M+1 malate labeled at the C3 hydride (3-^2H-malate). As fumarate is symmetric, fumarase will interconvert 3-^2H-malate and 2-^2H-malate. Because malic enzyme will produce NADPH selectively from malate labeled at the C2 hydride, the relative abundance of 2-^2H-malate versus 3-^2H-malate was determined. 3-^2H-malate (and also 2,3-^2H-malate) yields M+1 oxaloacetate and aspartate, whereas 2-^2H-malate yields unlabeled oxaloacetate and aspartate. […] Summing 2-^2H-malate and 2,3-^2H-malate, the fraction of malate that is capable of making NADPH was 7.9%. Thus, while 2,2,3,3-^2H-dimethyl succinate labeled only approximately 3.2% of NADPH, after adjusting for the extent of malate labeling and the malic enzyme kinetic isotope effect, the fraction of NADPH generated via malic enzyme was calculated to be is approximately 60%.
4-^2H-glucose was therefore employed as a metabolic tracer. Cells were grown in 6 cm tissue culture dishes, and the labeled medium was replaced every day, and additionally 2 hours before extracting metabolites. Because labeling of glycolytic and oxPPP intermediates and the redox active hydride of NADPH reaches steady state over approximately 5 min, where for TCA intermediates this can take several hours, to ensure steady-state labeling, oxPPP tracing with 1-^2H-glucose and 1,2-^13C-glucose is performed for a minimum of 30 min and other labeling experiments for a minimum of 12 h. Metabolism is then quenched and metabolites extracted by aspirating media and immediately adding 2 mL −80° C. 80:20 methanol:water. After 20 min. of incubation on dry ice, the resulting mixture was scraped, collected into a centrifuge tube, and centrifuged at 10000 g for 5 min. Insoluble pellets were re-extracted with 1 mL −80° C. 80:20 methanol: water on dry ice. […]

In experiment [1] the test system is methylene-THF oxidation pathway. Briefly: Folate pathway tracing: NADPH labeling from 2,3,3-2H-serine in 3T3-L1 cells. The class given is cell-based.
Experiment [2] has as its system HEK293T cells. Particulars: 3 days, DMEM no serine, 5 mM glycine instead of 0.4 mM.
Experiment [3] deals with HEK293T cells. Particulars: non-growing HEK293T cells, 150 μM H2O2, 5 h.
Protocol: Total cytosolic NADPH turnover was measured based on the absolute oxPPP flux divided by the fractional contribution of the oxPPP to total NADPH as measured using NADP2H formation from 1-^2H-glucose. Mean±SD, N=3.

In the case of `[2H]C1(O)OC(CO)C(O)C(O)C1O` (stereo not drawn) [1-^2H-Glucose], the “excess of M+1 NADPH over M+1 NADP+” value in the experiment with oxPPP is approximately 16%.

Take `[2H]C([2H])(C(=O)OC)C([2H])([2H])C(=O)OC` [2,2,3,3-^2H-dimethyl succinate]: the “fraction of 2-2H-malate” value in the experiment on malic enzyme (M+1 plus M+2 malate minus M+1 aspartate, differentiating 3T3-L1 adipocytes) is reported as “approximately 6.4%”. The “fraction of NADPH generated via malic enzyme” value in the experiment with malic enzyme (after adjusting for malate labeling and malic enzyme kinetic isotope effect, normoxic differentiating 3T3-L1 adipocytes) is on record as “approximately 60%”. Also, the “fraction of malate capable of making NADP2H (2-2H-malate plus 2,3-2H-malate)” value in the experiment on malic enzyme (differentiating 3T3-L1 adipocytes) is 7.9%. Besides, in the experiment on malic enzyme, the “fraction of M+1 aspartate” value amounted to 6.0%, the “fraction of M+1 malate” value is listed as 10.9% and the “fraction of M+2 malate” value is recorded as 1.5%. Also, the “average hydride 2H-labeling fraction of a set of abundant fatty acids” value with malic enzyme (differentiating 3T3-L1 adipocytes, newly synthesized fatty acids only) is given as 2.87%±0.31%. In addition, in the experiment on malic enzyme (differentiating 3T3-L1 cells), the “fatty acid 2H-labeling, M+0 fraction” value is given as “approximately 60%”; the “fatty acid 2H-labeling, M+1 fraction” value is on record as approximately 30%; the “fatty acid 2H-labeling, M+2 fraction” value is given as approximately 10%. In the experiment with malic enzyme (differentiating (day 5) 3T3-L1 adipocytes, tracer fed 24 h), the “total adipocyte (whole cell) NADPH labeled at redox active hydride” value is listed as 3.4%±0.3%. Also, the “fatty acid 2H-labeling, M+0 fraction” value in the experiment on malic enzyme (proliferating 3T3-L1 cells) amounted to 100%.

Take `[2H]C([2H])(O)[C@]([2H])(N)C(=O)O` [2,3,3-^2H-serine]: the “labeling of NADPH at its redox active hydride” value in experiment [1] is on record as “approximately 3%”.

Regarding `[2H][C@@]1(O)[C@@H](CO)OC(O)[C@H](O)[C@@H]1O` (stereo partly drawn) [4-^2H-glucose], in the experiment on malic enzyme, the “fraction of M+1 aspartate” value is 4.3% and 4.3 ± 0.1%; the “fraction of M+1 malate” value is 12.3% and 12.3 ± 0.1%; the “fraction of M+2 malate” value was 0.3% and 0.3 ± 0.0%. In the experiment on malic enzyme (differentiating 3T3-L1 cells), the “fatty acid 2H-labeling, M+0 fraction” value is recorded as “approximately 60%”; the “fatty acid 2H-labeling, M+1 fraction” value is listed as approximately 35%; the “fatty acid 2H-labeling, M+2 fraction” value is approximately 5%. Further, the “fatty acid 2H-labeling, M+0 fraction” value in the experiment with malic enzyme (proliferating 3T3-L1 cells) stood at 100%.

As for `NCC(=O)O` [glycine], in the experiment with HEK293T cells [2], the “cell growth (relative cell number)” value is listed as “inhibit cell growth” and the “relative NADPH/NADP+ ratio” value is reported as “decrease the NADPH/NADP+ ratio”.

As to `OO` [hydrogen peroxide], in the experiment on HEK293T cells [3], the “total cytosolic NADPH production rate” value turned out to be 5.5 nmol/µL/h.
